Experimental data published in patent US7888355B2, “Compositions and methods for inhibiting growth and metastasis of melanoma” (Burnham Institute for Medical Research, priority 2007, dated 2011).

How the values were obtained:
[1] = tested on: MeWO cells; assay: MeWO melanoma cell viability; type: cell-based, human
Protocol: Cell lines. Mouse melanoma (SW1) and human melanoma (LU1205) cells were maintained in DMEM supplemented with 10% FBS, L-glutamine and antibiotics. The human melanoma cell lines MEWO and WM115 were maintained in RPMI supplemented with 10% FBS and antibiotics. Primary mouse melanocytes were cultured in F-12 media supplemented with 10% FBS, antibiotics, IBMX (isobuthyl-methylxantine), bovine pituitary extract, and TPA.
Mitochondrial activity and apoptosis. Cells were exposed to the chemicals for 12-48 hours as indicated in Results. To measure changes in mitochondrial activity reflective of general cell viability, the ATPLITE ATP detection assay was used according to the manufacturer's recommendations (Perkin Elmer). Apoptosis analysis was performed by flow cytometry of PI-stained cells. The percentage of cells to the left of the diploid G0/1 peak, characteristic of hypodiploid cells that have partially lost DNA, was calculated as percentage of apoptotic cells (Bhoumik et al., PNAS 101:4222-7, 2004). Analysis of changes in Caspase 8 expression pattern was performed using immunoblot analysis.
The effects of CSL and AIGA on the human melanoma cell lines WM115 and MEWO were assessed. […]

[2] = tested on: Mdm2 and p53; assay: Stability of short-lived proteins; type: cell-based; settings: 0.3-1 μM, data not shown
From the text: CSL was also shown to inhibit NF-κB activation through the inhibition of IKB kinase and TAK1 activities. […] Thus, it is likely that the ability of CSL to attenuate NF-κB activity would result in increased JNK activity, which is consistent the findings herein. It is the increase in JNK activity, and consequently of its substrate c-Jun, in concert with inhibition of ATF2 activities that brings about the potent cytotoxic effects of both CSL and AIGA on melanoma cells, similar to what was previously shown for the ATF2 peptides.

[3] = tested on: Human melanoma LU1205 cells; assay: LU1205 lung metastasis in nude mice; type: in vivo, mouse; settings: compound every second day, analysis 60 days after injection
Protocol: (§1) Tumor growth and metastasis in vivo. GFP-expressing SW1 cells were trypsinized, resuspended in PBS, and injected subcutaneously (1×10^6) into the lower flank of 6 to 7-week-old mice. When tumors reached a size of about 50 mm^3, the indicated compounds (100 μL of the vehicle—10% DMSO, 70% Cremophor/ethanol (3:1), and 20% PBS and 1.0 mg/kg of celastrol or 0.5 mg/kg of the derivatives CA16, CA19) were injected i.p. every alternate day. Body weight and tumor growth were monitored every 2 days. GFP-expressing SW1 tumors were monitored in vivo on shaved mice with a light box illuminated by blue light fiber optics (Lightools Research; Encinitas, Calif.), and imaging was carried out with a digital camera (Nikon D100). Tumors were measured for up to 3 weeks. For metastases studies, LU1205 cells (1×10^6) were injected i.v. into the lateral tail vein of nude mice. At the end of the experiment, the lungs and tumors were excised and weighed. To detect metastatic lesions, lungs were fixed in formalin, embedded in paraffin and subjected to hematoxylin and eosin staining.
The effect of CSL and CSL derivatives, CA16 and CA19, on the metastatic capacity of melanoma cells was then determined. Human melanoma LU1205 cells were injected into the tail vein of nude mice, followed by administration of the compounds every second day. This approach allows monitoring of changes in the number of lesions formed on the lungs, a primary organ for tumor cell growth under this experimental approach. Analysis performed 60 days following injection determined changes in the number and size of metastatic lesions in each of the experimental groups.

[4] = Tolerability of administration to mice; type: in vivo, mouse; settings: daily administration, doses up to 1 mg/kg
Protocol: (§2) To assess the ability of CSL and CSL derivatives to affect the tumorigenicity and metastasis of melanoma, the mouse SW1 cell lines were used in syngeneic models. Injection of SW1 melanoma cells subcutaneously into C3H mice was followed by daily injections of CSL intraperitoneally (IP). […] Briefly, SW1 cells that stably express GFP were injected s.c into C3H mice. When the tumor reached the size of 50 mm^3, the vehicle, CSL (1 mg/kg), CA16 (0.5 mg/kg) or CA19 (0.5 mg/kg) were administered i.p, every second day for a period of 24 days. Tumor size was measured at the indicated times. Data presented in FIG. 6b represents two experiments.

[5] = tested on: SW1 mouse melanoma; assay: SW1 metastatic lesions in syngeneic C3H mice; type: in vivo; settings: SW1 cells s.c. in C3H mice
Protocol: as §1
To further assess the impact of these compounds on the development of metastatic lesions, the SW1 mouse melanoma model using the syngeneic C3H strain was employed. Subcutaneous injection of SW1 cells results in tumor formation at the site of injection followed by metastasis to different sites within 6-8 weeks.

[6] = tested on: SW1 tumors; assay: SW1 tumor growth in syngeneic C3H mice; type: in vivo, mouse; settings: 1 mg/kg i.p. every second day for 24 days
Protocol: as §1, §2

CC(=O)Oc1c2c(c(CC=C(C)C)c3c1C(=O)C1=C[C@@H]4CC5C(C)(C)OC(C/C=C(\C)C(=O)O)(C4=O)[C@@]15O3)OC(C)(CCC=C(C)C)C=C2 (stereo partly drawn) [AIGA, Acetyl isogambogic acid]
concentration at which viability was reduced [1]: 0.5 to 2 µM

CC1=C(O)C(=O)C=C2C1=CC=C1[C@@]2(C)CC[C@@]2(C)[C@@H]3C[C@](C)(C(=O)O)CC[C@]3(C)CC[C@]12C [Celastrol]
stability of short-lived proteins, including Mdm2 and p53 [2]: did not affect | growth of large, medium and small sized lesions in the lungs [3]: efficient in inhibiting growth of large medium and small sized lesions in the lungs | toxicity or discomfort in mice [4]: did not result in toxicity or any noticeable discomfort | metastatic lesions [5]: potently exhibit the ability to inhibit large as well as small metastatic lesions, with the exception of the 1-2 mm range | reduction of tumor growth [6]: 5 fold
